# Results reported in patent publication US10583109B2, “Use of silver(I) complexes as anticancer agents” (University of Johannesburg, priority 2012, dated 2020).
# Columns and labels:
# [1] = system: MCF-7 breast cancer cells; experiment: AlamarBlue viability and proliferation assay of MCF-7 breast cancer cells; assay type: cell-based, human; conditions: MCF-7 cells
# Procedure: For the biological studies, MCF-7 breast cancer cells were obtained from an immortal cell line from human adenocarcinoma from (primary site) mammary gland and (metastatic site) pleural effusion (ATCC no HTB-22).
# MCF-7 breast cancer cells were cultured in Dulbecco's modified Eagle's medium (DMEM), 13.53 g/L with sodium bicarbonate (NaHCO3), 3.7 g/L supplemented with 10% foetal bovine serum (FBS), 1% gentamycin and 5% Penicillin/Streptomycin/Fungizone in 75 cm^3 culture flasks. Cells were subcultured twice a week and incubated at 37° C. with 5% CO2 in a humidified atmosphere. Hanks balanced salt solution (HBSS), supplemented DMEM media and trypsin versene were warmed to 37° C. prior to subculturing. Cells were washed twice with 10 ml Hanks balanced salt solution for 1 minute and were then incubated for 4.5 to 5 minutes at 37° C. with 6 ml trypsin versene to remove the cells from the culture flask. To inactivate the trypsin versene, 10 ml supplemented DMEM was added and the cells were pelleted by centrifugation at 1028 g for 4 minutes with an Allegra™ 25R Centrifuge. The pellet was resuspended in 1 ml supplemented DMEM and 500 μl of the cell suspension was then added to 25 ml of supplemented DMEM media in 75 cm^3 culture flasks.
# MCF-7 breast cancer cells, in terms of a first study, and SNO-oesophageal cancer cells, in terms of a second study, were treated with 10 μM silverthiocyanide complexes (1)-(5), as well as their ligands (Ligand-1 to Ligand-5) over a 24 hour incubation period. […] An untreated negative control (UT) was exposed to similar conditions as the treated cells and monitored during the experimental study.
# The AlamarBlue® viability and proliferation assay of complexes (1)-(5) for the MCF-7 breast cancer cells is depicted in FIGS. 1A to 1F. The percentage viability of control samples determined by the AlamarBlue® viability and proliferation assay is depicted in FIG. 1A. […] A significant difference (P<0.001) between the control and the treated samples was calculated using Student's T-test and is indicated by an asterisk.
# This Figure depicts the percentage viability of MCF-7 cells treated with various concentrations of complex (1) as determined by the AlamarBlue® viability and proliferation assay. […] The asterisk indicates a significant difference between a sample and the control (P<0.001) as calculated with Student's T-test.
# FIG. 1C to FIG. 1F represent the dose dependant studies of complexes (2) to (5), respectively. In each of these Figures, the percentage viability of MCF-7 cells treated with various concentrations of complexes (2) to (5) was determined by the AlamarBlue® viability and proliferation assay. […] The asterisk indicates a significant difference between a sample and the control (P<0.001) as calculated with Student's T-test. […]
# [2] = system: SNO-oesophageal cancer cells; experiment: Morphological features of SNO-oesophageal cancer cells by inverse light microscopy; assay type: cell-based; conditions: 10 μM, 24 hours of treatment
# Procedure: Morphological studies were done by means of an Axiovert 25 inverted microscope (Carl Zeiss, Göttingen, Germany) with Axio Vision 3.1 software (Carl Zeiss, Göttingen, Germany) using an magnification of 100×.
# After 24 hours of treatment with complexes (1)-(5) including their ligands the cells were examined under said Axiovert 25 inverted light microscope. This was done to determine how the complexes of the present invention influence morphology which was compared to 100 μM Cisplatin (apoptotic control) and 15% H2O2 (necrotic control).
# Light microscope images indicating the morphology of the differentially treated SNO-oesophageal cancer cells is shown in FIG. 8. An untreated control (a) including 100 μM Cisplatin (b), an apoptotic control and 15% H2O2 (c), and a necrotic control was included. Cells were treated with 10 μM silver(I) thiocyanate phosphine complexes (1)-(5) as well as their separate ligands (Ligand-1 to Ligand-5, respectively) (FIGS. 8d to 8m). Black arrows represent signs of apoptosis, while the white arrows represent signs of necrosis.
# An Axiovert 25 inverted microscope was used to examine if these complexes affect the morphological features of the malignant cells in any other way. This was done at a magnification of 100× with the use of Axio Version 3.1 software (Carl Zeiss, Gottingen, Germany).
# Morphological studies where done after 24 hours of treatment to determine how these compounds influence/change specific features of the malignant SNO-oesophageal cancer cells, compared to the untreated (UC) and 1% DMSO vehicle control. The treated cancer cells including their controls were examined under an Axiovert 25 inverted light microscope (Carl Zeiss, Göttingen, Germany) with Axio Vision 3.1 software (Carl Zeiss, Göttingen, Germany) using a 100× magnification. In FIG. 19, the morphology of the different controls including Ligand-10 and complexes (10)-(12) are represented. To predict the targeting mechanisms of these compounds, the treated cells were compared to 100 μM Cisplatin (apoptotic control) and 25% H2O2 (necrotic control).
Molecule,cytotoxic activity (ranking) [1],necrotic cell death (morphology) [2]
[AgSCN{P(4-FC6H4)3}2]2 [complex (3)],strongest,Necrotic cell death was also observed
"C1#[N+][Ag]([P+](c2ccccc2)(c2ccccc2)c2ccccc2)([P+](c2ccccc2)(c2ccccc2)c2ccccc2)[S]C#[N+][Ag]([P+](c2ccccc2)(c2ccccc2)c2ccccc2)([P+](c2ccccc2)(c2ccccc2)c2ccccc2)[S]1 [complex (1), [AgSCN(PPh3)2]2]",strongest,Necrotic cell death was also observed
